Measurements published in US20260258032A1, “TYROSINE KINASE 2 INHIBITORS AND USES THEREOF” (BIOGEN MA INC., priority 2022, published 2026).
Where a name gives a salt, the structure may show the parent alone.

Assays:
[1] = test system: Tyk2 kinase activity on STAT4; experiment: pSTAT4 cell assay (MSD, NK92 cells); type: cell-based; conditions: compounds 1 hr
Method in brief: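 Serum-starved NK92 cells, which natively express Tyk2 and STAT4, were pretreated for 1 h with a 10-point 4-fold dilution series from 10 μM. They were then stimulated with 30 ng/mL IL2 for 15 min. Phospho-STAT in lysates was quantified by MSD with anti-STAT4 antibodies, and IC50 was obtained from 4-parameter logistic fits.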

[2] = molecular target: T1, JH2 domain of human Tyk2 (Homo sapiens, UniProt P29597); experiment: JH2 biochemical assay (TR-FRET probe displacement); type: binding
T1 construct: 10×His-tagged TYK2 JH2 domain (amino acid 575-876)
Method in brief: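 10×His-tagged human TYK2 JH2 (aa 575-876, 2 nM) incubated 60 min with 2 nM fluorescent probe, 0.1 nM Tb anti-His antibody and compound (10-point 3-fold series from […] top). TR-FRET 520/495 nm ratio, falling with probe displacement, normalized and fitted to a 4-parameter logistic for IC50.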

[3] = TR-FRET probe displacement, JH2 domain of human Tyk2

T1 sequence (P29597 575-876): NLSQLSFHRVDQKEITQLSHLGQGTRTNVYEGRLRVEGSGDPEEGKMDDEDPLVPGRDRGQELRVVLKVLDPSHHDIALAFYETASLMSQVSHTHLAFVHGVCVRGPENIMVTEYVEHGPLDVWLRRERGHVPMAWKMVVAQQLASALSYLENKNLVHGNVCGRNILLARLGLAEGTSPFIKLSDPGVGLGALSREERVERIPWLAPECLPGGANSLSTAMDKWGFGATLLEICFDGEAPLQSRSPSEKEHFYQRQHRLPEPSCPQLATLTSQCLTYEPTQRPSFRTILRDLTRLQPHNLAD

CC(=O)Nc1cc2c(cn1)C1(CC1)CN2c1cc(C)nc(OCC2CC2)n1 [Example 369, N-(1′-(2-(cyclopropylmethoxy)-6-methylpyrimidin-4-yl)-1′,2′-dihydrospiro[cyclopropane-1,3′-pyrrolo[3,2-c]pyridin]-6′-yl)acetamide]
IC50 ([1]; stimulated 15 minutes): ≥ 1000 nM
IC50 ([2]; JH2 biochemical assay): 100 to 1000 nM

CC(=O)Nc1cc2c(cn1)C1(CC1)CN2c1cc(C)nc(OC2CC(F)C2)n1 (stereo not drawn) [Example 370, N-(1′-(2-(3-fluorocyclobutoxy)-6-methylpyrimidin-4-yl)-1′,2′-dihydrospiro[cyclopropane-1,3′-pyrrolo[3,2-c]pyridin]-6′-yl)acetamide]
IC50 ([1]; stimulated 15 minutes): ≥ 1000 nM
IC50 ([2]; JH2 biochemical assay): 100 to 1000 nM

COC(C)(C)COc1nc(C)cc(N2CC3(CC3)c3cnc(NC(C)=O)cc32)n1 [Example 373, N-(1′-(2-(2-methoxy-2-methylpropoxy)-6-methylpyrimidin-4-yl)-1′,2′-dihydrospiro[cyclopropane-1,3′-pyrrolo[3,2-c]pyridin]-6′-yl)acetamide]
IC50 ([1]; then stimulated 15 minutes): ≥ 1000 nM
IC50 [2, 3]: 100 to 1000 nM

CC(=O)Nc1cc2c(cn1)C1(CC1)CN2c1cc(C)cc(-c2cnn(S(C)(=O)=O)c2)n1 [Example 258, N-(1′-(4-methyl-6-(1-(methylsulfonyl)-1H-pyrazol-4-yl)pyridin-2-yl)-1′,2′-dihydrospiro[cyclopropane-1,3′-pyrrolo[3,2-c]pyridin]-6′-yl)acetamide trifluoroacetate]
IC50 ([1]; stimulated 15 minutes): 100 to 1000 nM
IC50 ([2]; JH2 biochemical assay): 10 to 100 nM

CC(=O)Nc1cc2c(cn1)C1(CC1)CN2c1cc(C)nc(OC2CC(F)(C#N)C2)n1 (stereo not drawn) [Example 368, N-(1′-(2-(3-cyano-3-fluorocyclobutoxy)-6-methylpyrimidin-4-yl)-1′,2′-dihydrospiro[cyclopropane-1,3′-pyrrolo[3,2-c]pyridin]-6′-yl)acetamide]
IC50 ([1]; stimulated 15 minutes): ≥ 1000 nM
IC50 ([2]; JH2 biochemical assay): 100 to 1000 nM

CC(=O)Nc1cc2c(cn1)C1(CC1)CN2c1cc(NC(C)C2COC2)nc(C(C)(F)F)n1 (stereo not drawn) [Example 175, N-(1′-(2-(1,1-difluoroethyl)-6-((1-(oxetan-3-yl)ethyl)amino)pyrimidin-4-yl)-1′,2′-dihydrospiro[cyclopropane-1,3′-pyrrolo[3,2-c]pyridin]-6′-yl)acetamide]
IC50 ([1]; stimulated 15 minutes): 100 to 1000 nM
IC50 ([2]; JH2 biochemical assay): ≤ 10 nM

CC(=O)Nc1cc2c(cn1)C1(CC1)CN2c1cc(C)nc(N2CC(C)(O)C2)n1 [Example 226, N-(1′-(2-(3-hydroxy-3-methylazetidin-1-yl)-6-methylpyrimidin-4-yl)-1′,2′-dihydrospiro[cyclopropane-1,3′-pyrrolo[3,2-c]pyridin]-6′-yl)acetamide]
IC50 ([1]; stimulated 15 minutes): ≥ 1000 nM
IC50 ([2]; JH2 biochemical assay): 10 to 100 nM

CC(=O)Nc1cc2c(cn1)C1(CC1)CN2c1cc(C)cc(N2CCN(C)C(C(F)F)C2)n1 (stereo not drawn) [Example 183, N-(1′-(6-(3-(difluoromethyl)-4-methylpiperazin-1-yl)-4-methylpyridin-2-yl)-1′,2′-dihydrospiro[cyclopropane-1,3′-pyrrolo[3,2-c]pyridin]-6′-yl)acetamide]
IC50 ([1]; stimulated 15 minutes): ≥ 1000 nM
IC50 ([2]; JH2 biochemical assay): 100 to 1000 nM

COCCOc1cc(N2CC3(CC3)c3cnc(NC(C)=O)cc32)nc(C(C)(F)F)c1 [Example 86, N-(1′-(6-(1,1-difluoroethyl)-4-(2-methoxyethoxy)pyridin-2-yl)-1′,2′-dihydrospiro[cyclopropane-1,3′-pyrrolo[3,2-c]pyridin]-6′-yl)acetamide]
IC50 ([1]; stimulated 15 minutes): ≤ 10 nM
IC50 ([2]; JH2 biochemical assay): ≤ 10 nM

CC(=O)Nc1cc2c(cn1)C1(CC1)CN2c1cc(C)cc(N2CC(C#N)(C(F)F)C2)n1 [Example 202, N-(1′-(6-(3-cyano-3-(difluoromethyl)azetidin-1-yl)-4-methylpyridin-2-yl)-1′,2′-dihydrospiro[cyclopropane-1,3′-pyrrolo[3,2-c]pyridin]-6′-yl)acetamide]
IC50 ([1]; stimulated 15 minutes): ≥ 1000 nM
IC50 ([2]; JH2 biochemical assay): 10 to 100 nM

CC(=O)Nc1cc2c(cn1)C1(CC1)CN2c1cc(C)cc(OC2CC(F)C2)n1 (stereo not drawn) [Example 346, N-(1′-(6-(3-fluorocyclobutoxy)-4-methylpyridin-2-yl)-1′,2′-dihydrospiro[cyclopropane-1,3′-pyrrolo[3,2-c]pyridin]-6′-yl)acetamide trifluoroacetate]
IC50 ([1]; stimulated 15 minutes): ≥ 1000 nM
IC50 ([2]; JH2 biochemical assay): 100 to 1000 nM

CC(=O)Nc1cc2c(cn1)C1(CC1)CN2c1cc(C)cc(OCC2CC2)n1 [Example 352, N-(1′-(6-(cyclopropylmethoxy)-4-methylpyridin-2-yl)-1′,2′-dihydrospiro[cyclopropane-1,3′-pyrrolo[3,2-c]pyridin]-6′-yl)acetamide trifluoroacetate]
IC50 ([1]; stimulated 15 minutes): ≥ 1000 nM
IC50 ([2]; JH2 biochemical assay): 100 to 1000 nM

CC(=O)Nc1cc2c(cn1)C1(CC1)CN2c1cc(NC[C@@H]2CCO2)nc(C(C)(F)F)n1 [Example 163, (S)-N-(1′-(2-(1,1-difluoroethyl)-6-((oxetan-2-ylmethyl)amino)pyrimidin-4-yl)-1′,2′-dihydrospiro[cyclopropane-1,3′-pyrrolo[3,2-c]pyridin]-6′-yl)acetamide]
IC50 ([1]; stimulated 15 minutes): 10 to 100 nM
IC50 ([2]; JH2 biochemical assay): ≤ 10 nM

CC(=O)Nc1cc2c(cn1)C1(CC1)CN2c1cc(C)nc(-c2cnn(C)c2C(F)F)n1 [Example 248, N-(1′-(2-(5-(difluoromethyl)-1-methyl-1H-pyrazol-4-yl)-6-methylpyrimidin-4-yl)-1′,2′-dihydrospiro[cyclopropane-1,3′-pyrrolo[3,2-c]pyridin]-6′-yl)acetamide]
IC50 ([1]; stimulated 15 minutes): ≥ 1000 nM
IC50 ([2]; JH2 biochemical assay): 10 to 100 nM

CC(=O)Nc1cc2c(cn1)C1(CC1)CN2c1cc(Oc2ccn(C)n2)nc(C(C)(F)F)n1 [Example 143, N-(1′-(2-(1,1-difluoroethyl)-6-((1-methyl-1H-pyrazol-3-yl)oxy)pyrimidin-4-yl)-1′,2′-dihydrospiro[cyclopropane-1,3′-pyrrolo[3,2-c]pyridin]-6′-yl)acetamide trifluoroacetate]
IC50 ([1]; stimulated 15 minutes): 100 to 1000 nM
IC50 ([2]; JH2 biochemical assay): ≤ 10 nM

CC(=O)Nc1cc2c(cn1)C1(CC1)CN2c1cc(C)nc(N2CC(CC(C)C)C2)n1 [Example 410, N-(1′-(2-(3-isobutylazetidin-1-yl)-6-methylpyrimidin-4-yl)-1′,2′-dihydrospiro[cyclopropane-1,3′-pyrrolo[3,2-c]pyridin]-6′-yl)acetamide trifluoroacetate]
IC50 ([1]; then stimulated 15 minutes): 100 to 1000 nM
IC50 [2, 3]: ≥ 1000 nM

COc1ccc(-c2cc(N3CC4(CC4)c4cnc(NC(C)=O)cc43)nc(C(C)(F)F)n2)cn1 [Example 243, N-(1′-(2-(1,1-difluoroethyl)-6-(6-methoxypyridin-3-yl)pyrimidin-4-yl)-1′,2′-dihydrospiro[cyclopropane-1,3′-pyrrolo[3,2-c]pyridin]-6′-yl)acetamide trifluoroacetate]
IC50 ([1]; stimulated 15 minutes): 10 to 100 nM
IC50 ([2]; JH2 biochemical assay): ≤ 10 nM

CCO/C=C\c1cc(N2CC3(CC3)c3cnc(NC(C)=O)cc32)nc(C(C)(F)F)n1 [Example 329, (Z)-N-(1′-(2-(1,1-difluoroethyl)-6-(2-ethoxyvinyl)pyrimidin-4-yl)-1′,2′-dihydrospiro[cyclopropane-1,3′-pyrrolo[3,2-c]pyridin]-6′-yl)acetamide]
IC50 ([1]; stimulated 15 minutes): 10 to 100 nM
IC50 ([2]; JH2 biochemical assay): ≤ 10 nM

CC(=O)Nc1cc2c(cn1)C1(CC1)CN2c1cc(-c2cn(C)nc2C)nc(C(C)(F)F)n1 [Example 239, N-(1′-(2-(1,1-difluoroethyl)-6-(1,3-dimethyl-1H-pyrazol-4-yl)pyrimidin-4-yl)-1′,2′-dihydrospiro[cyclopropane-1,3′-pyrrolo[3,2-c]pyridin]-6′-yl)acetamide trifluoroacetate]
IC50 ([1]; stimulated 15 minutes): 10 to 100 nM
IC50 ([2]; JH2 biochemical assay): ≤ 10 nM

CC(=O)Nc1cc2c(cn1)C1(CC1)CN2c1cc(C)cc(OC2CCC(O)C2)n1 (stereo not drawn) [Example 337, N-(1′-(6-((3-hydroxycyclopentyl)oxy)-4-methylpyridin-2-yl)-1′,2′-dihydrospiro[cyclopropane-1,3′-pyrrolo[3,2-c]pyridin]-6′-yl)acetamide trifluoroacetate]
IC50 ([1]; stimulated 15 minutes): 100 to 1000 nM
IC50 ([2]; JH2 biochemical assay): 10 to 100 nM

CC(=O)Nc1cc2c(cn1)C1(CC1)CN2c1cc(NC2CCSC2)nc(C(C)(F)F)n1 (stereo not drawn) [Example 181, N-(1′-(2-(1,1-difluoroethyl)-6-((tetrahydrothiophen-3-yl)amino)pyrimidin-4-yl)-1′,2′-dihydrospiro[cyclopropane-1,3′-pyrrolo[3,2-c]pyridin]-6′-yl)acetamide]
IC50 ([1]; stimulated 15 minutes): 10 to 100 nM
IC50 ([2]; JH2 biochemical assay): ≤ 10 nM

CC(=O)Nc1cc2c(cn1)C1(CC1)CN2c1cc(N2CCC2)nc(C(C)(F)F)n1 [Example 51, N-(1′-(6-(azetidin-1-yl)-2-(1,1-difluoroethyl)pyrimidin-4-yl)-1′,2′-dihydrospiro[cyclopropane-1,3′-pyrrolo[3,2-c]pyridin]-6′-yl)acetamide]
IC50 ([1]; stimulated 15 minutes): 100 to 1000 nM
IC50 ([2]; JH2 biochemical assay): ≤ 10 nM

CC(=O)Nc1cc2c(cn1)C1(CC1)CN2c1cc(C)cc(OC2CCC2)n1 [Example 340, N-(1′-(6-cyclobutoxy-4-methylpyridin-2-yl)-1′,2′-dihydrospiro[cyclopropane-1,3′-pyrrolo[3,2-c]pyridin]-6′-yl)acetamide trifluroacetate]
IC50 ([1]; stimulated 15 minutes): ≥ 1000 nM
IC50 ([2]; JH2 biochemical assay): 10 to 100 nM

CC(=O)Nc1cc2c(cn1)C1(CC1)CN2c1cc(N[C@H]2C[C@@H](F)C2)nc(C(C)(F)F)n1 [Example 168, N-(1′-(2-(1,1-difluoroethyl)-6-(((1s,3s)-3-fluorocyclobutyl)amino)pyrimidin-4-yl)-1′,2′-dihydrospiro[cyclopropane-1,3′-pyrrolo[3,2-c]pyridin]-6′-yl)acetamide trifluoroacetate]
IC50 ([1]; stimulated 15 minutes): 100 to 1000 nM
IC50 ([2]; JH2 biochemical assay): 10 to 100 nM
